Data set [1] is described as follows: Chemical stability in phosphate buffered saline (PBS). The data set is classed as physicochemical. The following applies: Table 2B, 50 μM prodrug. On the procedure:
(§1) Chemical stability of creatine prodrugs in phosphate buffered saline (PBS), simulated intestinal fluid (SIF) without pancreatin, simulated gastric fluid (SGF) without pepsin were determined by LC-UV, LC-CAD, LC-UV-CAD or LC-MS/MS as appropriate. Creatine prodrugs of the present disclosure (50 μM) were incubated at 37° C. according to described protocols and prodrug levels were compared between t=0, t=15, t=60, and t=120 mins by peak area ratio to determine the percentage remained at t=120 mins (2 h).
(§2) Protocol for PBS, SIF and SGF stability for screening:
(§3) Prodrugs (50 μM) were incubated in PBS, FaSSIF (Biorelevant) or FaSSGF (Biorelevant) at 37° C.

Data set [2] is described as follows: Chemical stability in simulated gastric fluid (SGF) without pepsin. The data set is classed as physicochemical. To be noted: Table 2B, 50 μM prodrug. On the procedure: as §1, §2, §3
In data set [3] the test system is Phenocell CrT deficient neurons (iPSC-derived human neurons). Put plainly: Creatine prodrug uptake and d3-creatine release in Phenocell CrT deficient neurons (Table 4B). The data set is classed as cell-based. To be noted: 2 hours. The protocol: Human neurons were obtained by differentiation of iPSC-derived neural stem cells for 14 days. The iPSCs were obtained from Phenocell Corporation. Neurons were cultured and differentiated to Day 10 and then frozen in liquid nitrogen. Neurons were thawed and replated at 1×10^6 per well of viable cells on poly-ornithine/laminin coated plates in 2 ml medium per well. Differentiation in complete Neurol medium with 2 ng/ml FGF2 was carried out for 4 additional days with a complete medium change (90% of medium) on Day 12. Activin A (20 ng/ml final conc.) was spiked into the cultures on Day 11 and Day 13. […] In parallel, compounds were incubated in medium alone to assess chemical stability of parent prodrug and metabolites. At the end of the 2 hour incubation, supernatants were collected and frozen at −80 C. Neurons in 6 well plates were washed gently 3× with HBSS and frozen at −80° C. Cell lysates were obtained by addition of 130 μl/well 10 mM Tris pH 7.4 with complete Mini protease inhibitors and scraping of wells. Plates were kept on ice during processing. Lysates were homogenized by hand briefly with a green pestle in 1.5 ml centrifuge tubes and then vortexed at high speed for 5 seconds. Lysates were centrifuged at 13,000 g, 10 minutes, 4 C and supernatants (cytosol fraction) were transferred in a new tube. A crash solution constituted of 80% acetonitrile and 20% water with bucetin, d5-Cr (internal standard) was added at 4:1 volume to volume to 50 ul of all samples for a total volume of 250 μL. Then plate was spun at 4000 rpm, 10 minutes, […] Samples were transferred to a new plate and frozen at −80 C prior to analysis by LC-MS/MS (Table 4B).

Data set [4] is described as follows: Liver microsome stability, mouse. The data set is classed as in vitro ADME. To be noted: liver microsomes, pH 7.4, Table 2B, read-out: Microsome Stability Mouse t1/2. On the procedure: (§4) The stabilities of creatine prodrugs can be evaluated in one or more in vitro systems using a variety of preparations following methods known in the art. Experimental conditions useful for the in vitro studies are described in Table 1. Prodrug is added to each preparation in triplicate. […]
(§5) Protocol for Microsomal Stability:
(§6) For reference compound, a 500 μM spiking solution was prepared: add 10 μL of 10 mM DMSO stock solution into 190 μL ACN. […] For test compound, a 5 mM spiking solution was prepared: add 10 μL of 10 mM DMSO stock solution into 10 μL ACN. […] NADPH stock solution (6 mM) was prepared by dissolving NADPH into buffer 0.1 M Potassium Phosphate buffer, 1.0 mM EDTA, pH 7.4. […] For 0-min, 135 μL of ACN containing IS was added to the wells of 0-min plate and then 15 μL of NADPH stock solution (6 mM) was added. 15 μL of NADPH stock solution (6 mM) was added to the samples designated as 0-, 5-, 10-, 20-, 30-min, 60-min; 15 μL of buffer 0.1 M Potassium Phosphate buffer, 1.0 mM EDTA, pH 7.4, was added to the samples designated as 60-min without NADPH. At 5-min, 10-min, 20-min, and 30-min, 60-min 135 μL of ACN containing IS was added to the wells of corresponding plates, respectively, to stop the reaction. […] 50 μL of the supernatant from each well was transferred into a 96-well sample plate containing 50 μL of ultra pure water (Millipore, ZMQS50FOI) and analyzed by LC/MS.
(Liver microsomes are a subcellular fraction often used to study metabolism.)

Data set [5] in a line: Plasma stability, mouse plasma. The following applies: 37 °C, read-out: Plasma Stability Mouse t1/2. The data set is classed as in vitro ADME. The protocol:
as §4
(§7) Protocol for plasma stability for early screen macrocycles (Method A):
(§8) Frozen plasma was thawed by placing at 37° C. quickly and centrifuged at 3,000 rpm for 8 minutes to remove clots. Then the supernatant was pipetted and pooled as the plasma to be used in the experiment. The plasma was placed on ice until used. The test compounds and reference compounds spiking solution was prepared as a 2.5 mM test compounds spiking solution A: Add 20 μL of 10 mM test compounds stock solution to 60 μL DMSO. 0.1 mM Spiking solution B was prepared: Add 40 μL of spiking solution A to 960 μL of […] Sodium phosphate buffer with 0.5% BSA. […] For 0-min, 400 μL of ACN containing IS was added to the wells of 0-min plate and then 90 μL of plasma was added. […] 50 μL of the supernatant was transferred from each well into a 96-well sample plate containing 120 μL of ultra pure water (Millipore, ZMQS50F01) and analyzed by LC/MS.
(§9) Protocol for plasma stability (Method B):
(§10) The frozen plasma was thawed in a 37° C. water bath and then, if needed, adjusted to pH=7.4 then preheated in a 37° C. incubator. The test article was dissolved in 10% DMSO/water and spiked into plasma pre-plated into 96 well plates at a final concentration of 1 μM. Discrete incubations were performed at 37° C. and included 5 time points: t=0, 2, 5, 15, and 30 min. Samples were then crashed with 4× volume, ice cold 20% water/80% acetonitrile and spun at 4000 g for 10 mins. The supernatant was dried down and reconstituted with water and analyzed by LC-MS/MS. The half life in minute was calculated.

Data set [6] in a line: Plasma stability, human plasma. The data set is classed as in vitro ADME. To be noted: 37 °C, read-out: Plasma Stability Human t1/2. On the procedure: as §4, §7, §8, §9, §10
Data set [7] is described as follows: Liver microsome stability, human. The data set is classed as in vitro ADME. To be noted: liver microsomes, pH 7.4, Table 2B, read-out: Microsome Stability Human t1/2. On the procedure: as §4, §5, §6

Each structure is given as a SMILES string. Where a name gives a salt, the structure may show the parent alone.

On to `Cl.[2H]C([2H])([2H])N(CC(=O)OC(C)C(C)(C)C)C(=N)NC(=O)CCCCCCCCCC` (stereo not drawn) [Compound 52], for which the “Chemical Stability PBS % T0 at 2 hours at 37 °C.” value in data set [1] was 98%. The “Chemical Stability SGF, no enzyme % T0 at 2 hours at 37 °C.” value in data set [2] was 98%. The “Prodrug concentration in the cell cytosol” value (“Prodrug concentration” below) in data set [3] (Study No. 1, 10 μM) turned out to be 3.47 nmoles/mg protein; in data set [3] (Study No. 1, 50 μM), 12 nmoles/mg protein; in data set [3] (Study No. 2, 50 μM), 9.5 nmoles/mg protein; in data set [3] (Study No. 3, 50 μM), 0.51 nmoles/mg protein. Also, the “d3-Creatine concentration in the cell cytosol” value (“d3-Creatine concentration” for short) in data set [3] (Study No. 1, 10 μM) is 0.65 nmoles/mg protein; in data set [3] (Study No. 1, 50 μM) it was 2.9 nmoles/mg protein; in data set [3] (Study No. 2, 50 μM) it was 0.8 nmoles/mg protein; in data set [3] (Study No. 3, 50 μM), 2.84 nmoles/mg protein. Also, the “d3-Creatinine concentration in the cell cytosol” value is reported as 0.84 nmoles/mg protein in data set [3] (Study No. 1, 10 μM); 29.6 nmoles/mg protein in data set [3] (Study No. 1, 50 μM); 10.6 nmoles/mg protein in data set [3] (Study No. 2, 50 μM); 8.82 nmoles/mg protein in data set [3] (Study No. 3, 50 μM).

On to `[2H]C([2H])([2H])N(CC(=O)O)C(=N)NC(=O)CCCCCCCCCCO` [Compound 54], for which the half-life at 10 μM in data set [4] and in data set [7] was above 1.5 h throughout. The half-life in data set [5] (Table 2B) and in data set [6] (Table 2B) was above 3 h in each case. In addition, the “Chemical Stability PBS % T0 at 2 hours at 37 °C.” value in data set [1] worked out at 103%. In data set [2], the “Chemical Stability SGF, no enzyme % T0 at 2 hours at 37 °C.” value is given as 102%. Further, the “Prodrug concentration” value is listed as “BLOQ” in data set [3] (Study No. 1, 10 μM) and “BLOQ” in data set [3] (Study No. 1, 50 μM). Further, the “d3-Creatine concentration” value in data set [3] (Study No. 1, 10 μM) was “BLOQ”; in data set [3] (Study No. 1, 50 μM) it was “BLOQ”. For the same compound, the “d3-Creatinine concentration in the cell cytosol” value in data set [3] (Study No. 1, 10 μM) is given as “BLOQ”; in data set [3] (Study No. 1, 50 μM) it was “BLOQ”.

As to `[2H]C([2H])([2H])N1CC(=O)OCCCCCCC(=O)NC1=N` [Compound EE, 5-imino-4-trideuteriomethyl-1-oxa-4,6-diazacyclotridecane-2,7-dione], in data set [3] (Study No. 3, 50 μM), the “Prodrug concentration” value is “BLOQ” and the “d3-Creatine concentration” value was “BLOQ”.

Consider `[2H]C([2H])([2H])N1CC(=O)OC(C)(C)CCCCCCCCC(=O)NC1=N` [Compound HH, 5-imino-4-trideuteriomethyl-16,16-Dimethyl-1-oxa-4,6-diazacyclohexadecane-2,7-dione], for which, in data set [3] (Study No. 3, 50 μM), the “Prodrug concentration” value is 0.088 nmoles/mg protein and the “d3-Creatine concentration” value was “BLOQ”.

Consider `[2H]C([2H])([2H])N1CC(=O)OC(C)CCCCCCCCCCC(=O)NC1=N` (stereo not drawn) [Compound M], for which the “Prodrug concentration” value in data set [3] (Study No. 2, 100 μM) is “BLOQ”; in data set [3] (Study No. 2, 500 μM), “BLOQ”.

Regarding `[2H]C([2H])([2H])N1CC(=O)O[C@H](C)CCCCCCCCCC(=O)NC1=N` [Compound Q, (R)-5-imino-4,17-dimethyl-1-oxa-4,6-diazacycloheptadecane-2,7-dione Hydrochloride], the half-life in data set [5] (Table 2C, macrocycles) came out at 0.0217 h; in data set [6] (Table 2C, macrocycles) it was 0.167 h. Further, the “Prodrug concentration” value in data set [3] (Study No. 2, 100 μM) was “BLOQ”; in data set [3] (Study No. 2, 500 μM), “BLOQ”.

For the compound `[2H]C([2H])([2H])N1CC(=O)OC(C)CCCCCCCC(=O)NC1=N` (stereo not drawn) [Compound S, 5-imino-4-trideuteriomethyl-15-methyl-1-oxa-4,6-diazacyclopentadecane-2,7-dione], in data set [3] (Study No. 3, 50 μM), the “Prodrug concentration” value was “BLOQ” and the “d3-Creatine concentration” value is listed as “BLOQ”.

Turning to `[2H]C([2H])([2H])N1CC(=O)OC(C)(C)CCCCCCCCCC(=O)NC1=N` [Compound U, 5-imino-4-trideuteriomethyl-17,17-dimethyl-1-oxa-4,6-diazacycloheptadecane-2,7-dione], the half-life in data set [5] (Table 2C, macrocycles) amounted to 1.17 h. For the same compound, in data set [3] (Study No. 3, 50 μM), the “Prodrug concentration” value is on record as 0.48 nmoles/mg protein and the “d3-Creatine concentration” value is listed as “BLOQ”. Besides, in data set [6] (Table 2C, macrocycles), the half-life stood at 1.2 h.

As to `[2H]C([2H])([2H])N1CC(=O)OC(CC)CCCCCCCC(=O)NC1=N` (stereo not drawn) [Compound V, 15-ethyl-5-imino-4-(methyl-d3)-1-oxa-4,6-diazacyclopentadecane-2,7-dione], in data set [3] (Study No. 3, 50 μM), the “Prodrug concentration” value is “BLOQ” and the “d3-Creatine concentration” value is “BLOQ”.

Turning to `[2H]C([2H])([2H])N1CC(=O)OC(CCC)CCCCCCCC(=O)NC1=N` (stereo not drawn) [Compound W, 5-imino-4-trideuteriomethyl-15-propyl-1-oxa-4,6-diazacyclopentadecane-2,7-dione], in data set [3] (Study No. 3, 50 μM), the “Prodrug concentration” value is recorded as 0.44 nmoles/mg protein and the “d3-Creatine concentration” value is reported as “BLOQ”.

As for `[2H]C([2H])([2H])N1CC(=O)OC(C)(C)CCCCCCCC(=O)NC1=N` [Compound X, 5-imino-15,15-dimethyl-4-(methyl-d3)-1-oxa-4,6-diazacyclopentadecane-2,7-dione], in data set [3] (Study No. 3, 50 μM), the “Prodrug concentration” value was “BLOQ” and the “d3-Creatine concentration” value is “BLOQ”.
